For orientation: IC50 means the concentration that inhibits the measured activity by half.

Consider 22 compounds from US11613531B2, “Inhibitors of RHO associated coiled-coil containing protein kinase” (Kadmon Corporation, LLC, priority 2017, dated 2023).

In test [1] the target is Recombinant ROCK2 (amino acids 1-552) (Homo sapiens (Human), UniProt O75116). The test is described as follows: Z′-Lyte kinase assay, ROCK2. The format is biochemical. Particulars: for inhibition at 0.5 µM: 0.5 μM compound; for inhibition at 0.5 µM / inhibition at 3 µM: read-out: ROCK2 % inh. @ [conc]; for inhibition at 3 µM: 3 μM compound. Put shortly: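 Recombinant human ROCK1 (aa 1-535) or ROCK2 (aa 1-552) activity read by Z′-Lyte kinase assay. Percent inhibition at 1 μM compound was normalized to DMSO control; IC50 from 9-point 2-fold serial dilutions by nonlinear regression.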
Recombinant ROCK2 (amino acids 1-552), sequence (O75116 1-552): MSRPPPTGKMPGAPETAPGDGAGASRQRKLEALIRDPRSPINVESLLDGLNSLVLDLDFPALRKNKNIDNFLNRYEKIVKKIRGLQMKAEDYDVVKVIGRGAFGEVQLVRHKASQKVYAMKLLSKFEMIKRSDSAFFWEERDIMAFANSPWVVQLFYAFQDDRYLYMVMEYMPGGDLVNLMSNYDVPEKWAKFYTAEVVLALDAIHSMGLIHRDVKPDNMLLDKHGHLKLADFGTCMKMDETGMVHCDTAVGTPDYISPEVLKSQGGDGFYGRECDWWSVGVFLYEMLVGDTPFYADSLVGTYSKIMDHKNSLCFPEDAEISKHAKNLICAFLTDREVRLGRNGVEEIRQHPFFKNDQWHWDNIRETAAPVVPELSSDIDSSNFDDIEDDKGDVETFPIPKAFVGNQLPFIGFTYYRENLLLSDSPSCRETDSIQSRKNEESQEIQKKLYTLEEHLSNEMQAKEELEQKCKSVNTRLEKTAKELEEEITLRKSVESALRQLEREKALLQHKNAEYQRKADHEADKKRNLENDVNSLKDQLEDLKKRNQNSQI

The target in test [2] is Recombinant ROCK1 (amino acids 1-535) (Homo sapiens (Human), UniProt Q13464). The test is described as follows: Z′-Lyte kinase assay, ROCK1. The format is biochemical. Particulars: for inhibition at 0.5 µM: 0.5 μM compound; for inhibition at 0.5 µM / inhibition at 3 µM: read-out: ROCK1 % inh. @ [conc]; for inhibition at 3 µM: 3 μM compound. The method, then: Determination of Compound's ROCK Inhibitory Activity In Vitro (Z'Lyte Assay).
Recombinant ROCK1 (amino acids 1-535), sequence (Q13464 1-535): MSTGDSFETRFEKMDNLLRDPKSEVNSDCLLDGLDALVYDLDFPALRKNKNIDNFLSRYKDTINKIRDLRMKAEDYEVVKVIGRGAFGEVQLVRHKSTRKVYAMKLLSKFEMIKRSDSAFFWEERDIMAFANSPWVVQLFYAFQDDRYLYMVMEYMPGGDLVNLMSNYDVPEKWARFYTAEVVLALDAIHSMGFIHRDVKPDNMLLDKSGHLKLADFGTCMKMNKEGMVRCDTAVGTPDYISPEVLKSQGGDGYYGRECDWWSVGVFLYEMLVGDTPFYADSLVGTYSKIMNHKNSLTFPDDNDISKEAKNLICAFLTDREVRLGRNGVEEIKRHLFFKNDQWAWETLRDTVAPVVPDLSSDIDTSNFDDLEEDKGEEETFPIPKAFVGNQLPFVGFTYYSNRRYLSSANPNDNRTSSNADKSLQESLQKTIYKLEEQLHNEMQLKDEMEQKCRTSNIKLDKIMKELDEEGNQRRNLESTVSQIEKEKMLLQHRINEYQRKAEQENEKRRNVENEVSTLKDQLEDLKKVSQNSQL
Recombinant ROCK1 (amino acids 1-535) and ROCK2 (amino acids 1-552) proteins were purchased from ThermoFisher Scientific. Compound's activities were measured by Z′-lyte kinase kit (ThermoFisher Scientific) and IC50 was calculated
In vitro activities for the compounds were measured with Z′-lyte kinase kit (ThermoFisher Scientific). The percent inhibition rate was calculated by normalizing the kinase activity value obtained with 1 μM compound treatment against DMSO control value and then applied to the formula, [1-(compound/DMSO)]×100%. IC50s were calculated using the nonlinear regression curve fit function of the GraphPad Prism software with kinase activities data measured with 9 points 2-fold serial dilution of compounds treatment. In cell pMLC IC50s were calculated with data obtained from A7R5 cell experiments. A7R5 cells were treated with 9 points 2-fold serial dilution of compounds and ppMlc (T18/S19) levels were determined to calculate cellular IC50 values of the compounds using the nonlinear regression curve fit function of the GraphPad Prism software. NIH3T3 cells stably expressing ACTA2-promoter-driven-luciferase were applied to measure ROCK compounds functional IC50s in cells. Cells were plated in 96 well plates to confluence and treated with 9 points serial dilution of compounds in combination with TGFβ1 for 24 hr. Luciferase activities were measured and compound's IC50s were calculated using the nonlinear regression curve fit function of the GraphPad Prism software.

Test [3] relates to ppMlc (T18/S19) levels in A7R5 cells. The test is described as follows: A7R5 in-cell ELISA (pMLC). The format is cell-based, Rat. Particulars: for inhibition at 1 µM / inhibition at 10 µM / IC50: Rattus norvegicus, A7R5, A7R5 cells; for inhibition at 1 µM: 1 μM compound; for inhibition at 1 µM / inhibition at 10 µM: read-out: pMLC % inh A7R5 @ [conc]. Put shortly:
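A7R5 rat aortic smooth muscle cells seeded 24 h, then treated 90 min with a 9-point 2-fold compound dilution series. Fixed cells probed for ppMlc (T18/S19) by colorimetric in-cell ELISA; cellular IC50 from nonlinear regression curve fit.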
In general terms: An ELISA detects its analyte on a solid surface through an enzyme-linked reagent.

Where [4] appears, read: 9 points 2-fold serial dilution.

Where “and” joins values, the source holds several entries; their conditions need not be identical. Equal entries are not always repeated. Where two headings read alike, the source gives them in different places.

Consider `Cc1cnc(N2CCNCC(C)C2)nc1Nc1ccc2[nH]ncc2c1` (stereo not drawn) [Example 196, N-(5-methyl-2-(6-methyl-1,4-diazepan-1-yl)pyrimidin-4-yl)-1H-indazol-5-amine], for which the inhibition at 0.5 µM in test [1] was 39%; in test [2] it was 37%. For the same compound, in test [3], the inhibition at 1 µM amounted to 17.6%.
In the case of `c1cc(Nc2ccc3[nH]ncc3c2)nc(N2CCC3(CCNCC3)C2)n1` [Example 202, N-(2-(2,8-diazaspiro[4.5]decan-2-yl)pyrimidin-4-yl)-1H-indazol-5-amine], the inhibition at 3 µM in test [1] is 88.3%; in test [2] it was 88.4%. Moreover, the inhibition at 10 µM in test [3] (10 μM compound) stood at 13.8%.
In the case of `CC1CN(c2nccc(Nc3ccc4[nH]ncc4c3)n2)CCCN1` (stereo not drawn) [Example 203, N-(2-(3-methyl-1,4-diazepan-1-yl)pyrimidin-4-yl)-1H-indazol-5-amine], the results for the inhibition at 3 µM in test [1] and in test [2] were 98% and 89.1%, respectively. For the same compound, the results for the IC50 in test [1] (setting [4]), in test [2] (setting [4]) and in test [3] (ppMlc (T18/S19)) were 57 nM, 46 nM and 561 nM, respectively. Also, in test [3] (10 μM compound), the inhibition at 10 µM came out at 63.5%.
Take `c1cc(Nc2ccc3[nH]ncc3c2)nc(N2CC3CNCC3C2)n1` (stereo not drawn) [Example 210, N-(2-(hexahydropyrrolo[3,4-c]pyrrol-2(1H)-yl)pyrimidin-4-yl)-1H-indazol-5-amine]: the inhibition at 3 µM is 0% in test [1] and 41.9% in test [2]. Moreover, the inhibition at 10 µM in test [3] (10 μM compound) came out at 73.4%. In addition, the IC50 in test [3] (ppMlc (T18/S19)) was determined as 589 nM.
Take `CC1CN(c2nccc(Nc3ccc4[nH]ncc4c3)n2)CCN1` (stereo not drawn) [Example 225, N-(2-(3-methylpiperazin-1-yl)pyrimidin-4-yl)-1H-indazol-5-amine]: the inhibition at 3 µM in test [1] was 98.3%; in test [2], 80.9%. For the same compound, the IC50 in test [1] (setting [4]) was 98 nM; in test [3] (ppMlc (T18/S19)), 532 nM. The inhibition at 10 µM in test [3] (10 μM compound) was 78%.
Regarding `N[C@@H]1CCN(c2nccc(Nc3ccc4[nH]ncc4c3)n2)C1` [Example 231, (R)—N-(2-(3-aminopyrrolidin-1-yl)pyrimidin-4-yl)-1H-indazol-5-amine], the IC50 in test [1] was 276 nM; in test [2], greater than 10000 nM; in test [3], 335 nM. In addition, the “pMLC % inh A7R5 @ [conc]” value in test [3] (A7R5 cells, 10 μM compound) was 94.24, % and 63.4%.
Regarding `CC1CNCCN1c1nccc(Nc2ccc3[nH]ncc3c2)n1` (stereo not drawn) [Example 232, N-(2-(2-methylpiperazin-1-yl)pyrimidin-4-yl)-1H-indazol-5-amine], the inhibition at 3 µM was found to be 104% in test [1] and 100% in test [2]. For the same compound, the IC50 came to 22 nM in test [1] (setting [4]), 75 nM in test [2] (setting [4]) and 129 nM in test [3] (ppMlc (T18/S19)). Besides, the inhibition at 10 µM in test [3] (10 μM compound) worked out at 93%.
As to `COc1cccc(CNC2CCCN(c3nccc(Nc4ccc5[nH]ncc5c4)n3)C2)c1` (stereo not drawn) [Example 233, N-(2-(3-((3-methoxybenzyl)amino)piperidin-1-yl)pyrimidin-4-yl)-1H-indazol-5-amine], the IC50 is 217 nM in test [1], greater than 10000 nM in test [2] and 712 nM in test [3]. Also, the inhibition at 10 µM in test [3] (10 μM compound) is 95.1%.
`CC1CNCCCN1c1nccc(Nc2ccc3[nH]ncc3c2)n1` (stereo not drawn) [Example 238, N-(2-(2-methyl-1,4-diazepan-1-yl)pyrimidin-4-yl)-1H-indazol-5-amine]: the IC50 in test [1] (setting [4]) turned out to be 17 nM; in test [2] (setting [4]), 55 nM; in test [3] (ppMlc (T18/S19)) it was 215 nM. The inhibition at 10 µM in test [3] (10 μM compound) came to 70%.
`CC1CCN(c2nc(Nc3ccc(-c4ccncc4)cc3)c3ccccc3n2)CCN1` (stereo not drawn) [Example 239, 2-(5-methyl-1,4-diazepan-1-yl)-N-(4-(pyridin-4-yl)phenyl)quinazolin-4-amine]: the inhibition at 3 µM in test [1] and in test [2] was 100% throughout. Also, the IC50 in test [1] (setting [4]) was greater than 1000 nM; in test [2] (setting [4]) it was greater than 1000 nM; in test [3] (ppMlc (T18/S19)), 6350 nM.
As to `Cc1cc(Nc2ccc(-c3ccncc3)cc2)nc(N2CCNC(C)CC2)n1` (stereo not drawn) [Example 245, 6-methyl-2-(5-methyl-1,4-diazepan-1-yl)-N-(4-(pyridin-4-yl)phenyl)pyrimidin-4-amine], the inhibition at 3 µM in test [1] and in test [2] was 100% in each case. Besides, the IC50 in test [1] (setting [4]) is greater than 1000 nM; in test [2] (setting [4]), greater than 1000 nM; in test [3] (ppMlc (T18/S19)), 8220 nM.
In the case of `Cc1cc(Nc2ccc(-c3ccncc3)cc2)nc(N2CCCNC(C)C2)n1` (stereo not drawn) [Example 247, 6-methyl-2-(3-methyl-1,4-diazepan-1-yl)-N-(4-(pyridin-4-yl)phenyl)pyrimidin-4-amine], the inhibition at 3 µM in test [1] and in test [2] was 100% throughout. Besides, the IC50 came out at 407 nM in test [1] (setting [4]), 132 nM in test [2] (setting [4]) and 1960 nM in test [3] (ppMlc (T18/S19)).
Take `CCC1CN(c2nccc(Nc3ccc(-c4ccncc4)cc3)n2)CCCN1` (stereo not drawn) [Example 248, 2-(3-ethyl-1,4-diazepan-1-yl)-N-(4-(pyridin-4-yl)phenyl)pyrimidin-4-amine]: the inhibition at 3 µM in test [1] and in test [2] was 100% each time. For the same compound, the IC50 in test [1] (setting [4]) was determined as 43.9 nM; in test [2] (setting [4]), 36 nM; in test [3] (ppMlc (T18/S19)) it was 968 nM.
On to `CCC1CCN(c2nccc(Nc3ccc(-c4ccncc4)cc3)n2)CCN1` (stereo not drawn) [Example 249, 2-(5-ethyl-1,4-diazepan-1-yl)-N-(4-(pyridin-4-yl)phenyl)pyrimidin-4-amine], for which the IC50 in test [1] (setting [4]) and in test [2] (setting [4]) was greater than 1000 nM in each case. Also, the inhibition at 10 µM in test [3] (10 μM compound) was 33.6%.
Take `CC(C)C1CCN(c2nccc(Nc3ccc(-c4ccncc4)cc3)n2)CCN1` (stereo not drawn) [Example 250, 2-(5-isopropyl-1,4-diazepan-1-yl)-N-(4-(pyridin-4-yl)phenyl)pyrimidin-4-amine]: the IC50 in test [1] (setting [4]) is greater than 1000 nM; in test [2] (setting [4]) it was greater than 1000 nM; in test [3] (ppMlc (T18/S19)), 5440 nM. In test [3] (10 μM compound), the inhibition at 10 µM was determined as 50.4%.
Consider `CC(C)C1CN(c2nccc(Nc3ccc(-c4ccncc4)cc3)n2)CCCN1` (stereo not drawn) [Example 251, 2-(3-isopropyl-1,4-diazepan-1-yl)-N-(4-(pyridin-4-yl)phenyl)pyrimidin-4-amine], for which the IC50 amounted to 160 nM in test [1] (setting [4]), 57 nM in test [2] (setting [4]) and 614 nM in test [3] (ppMlc (T18/S19)). In addition, in test [3] (10 μM compound), the inhibition at 10 µM is 66.9%.
Turning to `c1ccc(C2CCN(c3nccc(Nc4ccc(-c5ccncc5)cc4)n3)CCN2)cc1` (stereo not drawn) [Example 271, 2-(5-phenyl-1,4-diazepan-1-yl)-N-(4-(pyridin-4-yl)phenyl)pyrimidin-4-amine], the IC50 in test [1] (setting [4]) and in test [2] (setting [4]) was greater than 1000 nM throughout. Also, the inhibition at 10 µM in test [3] (10 μM compound) is 28.3%.
In the case of `c1ccc2c(Nc3ccc(-c4ccncc4)cc3)nc(N3CCCNCC3)nc2c1` [Example 272, 2-(1,4-diazepan-1-yl)-N-(4-(pyridin-4-yl)phenyl)quinazolin-4-amine], the inhibition at 3 µM in test [1] worked out at 85.8%; in test [2] it was 88.5%. In addition, the inhibition at 10 µM in test [3] (10 μM compound) was determined as 53.3%.
In the case of `c1cc(-c2ccc(Nc3ccnc(N4CCCNCC4)n3)cc2)ccn1` [Example 273, 2-(1,4-diazepan-1-yl)-N-(4-(pyridin-4-yl)phenyl)pyrimidin-4-amine], the figures for the inhibition at 3 µM in test [1] and in test [2] were 85.6% and 89.1%, respectively. For the same compound, in test [3] (10 μM compound), the inhibition at 10 µM turned out to be 44.1%.
Regarding `c1cc(-c2ccc(Nc3nc(N4C5CCC4CNC5)nc4c3COC4)cc2)ccn1` [Example 281, 2-(3,8-diazabicyclo[3.2.1]octan-8-yl)-N-(4-(pyridin-4-yl)phenyl)-5,7-dihydrofuro[3,4-d]pyrimidin-4-amine], in test [1], the IC50 is 2570 nM and the inhibition at 0.5 µM was found to be 10%. The inhibition at 0.5 µM in test [2] came out at 14%. Moreover, in test [3], the inhibition at 1 µM came out at 10.4%.
`c1cc2[nH]ncc2cc1Nc1nc(N2C3CNCC2C3)nc2c1COC2` [Example 283, 2-(3,6-diazabicyclo[3.1.1]heptan-6-yl)-N-(1H-indazol-5-yl)-5,7-dihydrofuro[3,4-d]pyrimidin-4-amine]: in test [1], the IC50 was less than 0.1 nM and the inhibition at 0.5 µM was determined as 101%. For the same compound, in test [2], the inhibition at 0.5 µM was determined as 101%. Besides, in test [3], the inhibition at 1 µM came out at 25.8%.
In the case of `c1cc2[nH]ncc2cc1Nc1nc(N2CC3CC2CN3)nc2c1COC2` (stereo not drawn) [Example 284, 2-(2,5-diazabicyclo[2.2.1]heptan-2-yl)-N-(1H-indazol-5-yl)-5,7-dihydrofuro[3,4-d]pyrimidin-4-amine], the inhibition at 0.5 µM was found to be 30% in test [1] and 25% in test [2]. Also, the inhibition at 1 µM in test [3] came out at 24.1%.
